These results are taken from paper PMC7134380 (Journal of the American Chemical Society, 2020).

This experiment addresses T1, human ornithine aminotransferase (hOAT) (Homo sapiens, UniProt P04181).
T1 sequence (P04181 26-439 limits assumed): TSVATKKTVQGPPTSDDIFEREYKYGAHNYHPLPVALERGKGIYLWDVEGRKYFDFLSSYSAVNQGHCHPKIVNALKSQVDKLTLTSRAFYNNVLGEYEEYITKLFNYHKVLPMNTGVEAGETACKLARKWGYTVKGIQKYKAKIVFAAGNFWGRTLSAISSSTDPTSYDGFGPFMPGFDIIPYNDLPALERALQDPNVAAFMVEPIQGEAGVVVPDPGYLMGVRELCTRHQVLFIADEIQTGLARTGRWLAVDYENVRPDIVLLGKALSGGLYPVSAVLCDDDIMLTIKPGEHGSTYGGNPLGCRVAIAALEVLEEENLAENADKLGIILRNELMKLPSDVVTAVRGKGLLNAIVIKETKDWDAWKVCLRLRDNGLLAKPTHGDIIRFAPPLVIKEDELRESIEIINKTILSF
The experiment is described as follows: time-dependent inactivation kinetics. The format is biochemical. The note with it: read-out: hOAT / KI; covalent; mechanism-based inactivator (kinact/KI analysis).

As to `N[C@H]1C[C@@H](C(=O)O)C[C@@H]1F` [compound 1, (1R,3S,4S)-3-amino-4-fluorocyclopentane-1-carboxylic acid], the KI (inactivation) turned out to be 1400 ± 41 µM.
